# Results from patent US10780081B2, “Method of treating multiple sclerosis employing a LSD1-inhibitor” (ORYZON GENOMICS, S.A., priority 2016, dated 2020).
# What was measured:
# [1] = target: T1, Human recombinant MAO-A (Homo sapiens, UniProt P21397); experiment: MAO-A kynuramine fluorescence assay; type: biochemical
# T1 construct: purchased Sigma Aldrich
# T1 sequence (P21397 1-527): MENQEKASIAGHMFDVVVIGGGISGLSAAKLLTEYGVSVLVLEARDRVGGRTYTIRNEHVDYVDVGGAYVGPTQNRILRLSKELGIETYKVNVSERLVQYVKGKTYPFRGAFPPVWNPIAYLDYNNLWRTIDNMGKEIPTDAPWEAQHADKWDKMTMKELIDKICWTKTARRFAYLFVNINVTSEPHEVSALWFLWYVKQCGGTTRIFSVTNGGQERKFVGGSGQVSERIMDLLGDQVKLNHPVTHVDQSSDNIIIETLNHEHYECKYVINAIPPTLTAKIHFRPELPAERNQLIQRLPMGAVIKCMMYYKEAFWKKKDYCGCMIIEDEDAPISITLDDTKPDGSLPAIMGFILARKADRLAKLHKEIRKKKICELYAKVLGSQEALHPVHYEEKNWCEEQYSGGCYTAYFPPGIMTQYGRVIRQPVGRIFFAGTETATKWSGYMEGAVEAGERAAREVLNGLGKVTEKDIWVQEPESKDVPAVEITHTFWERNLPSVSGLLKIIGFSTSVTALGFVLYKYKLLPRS
# Source text: Human recombinant monoamine oxidase proteins MAO-A and MAO-B were purchased from Sigma Aldrich. MAOs catalyze the oxidative deamination of primary, secondary and tertiary amines. In order to monitor MAO enzymatic activities and/or their inhibition rate by inhibitor(s) of interest, a fluorescence-based (inhibitor)-screening assay was set up. 3-(2-Aminophenyl)-3-oxopropanamine (kynuramine dihydrobromide, Sigma Aldrich), a non fluorescent compound was chosen as a substrate. Kynuramine is a non-specific substrate for both MAO-A and MAO-B activities. While undergoing oxidative deamination by MAO activities, kynuramine is converted into 4-hydroxyquinoline (4-HQ), a resulting fluorescent product.
# The monoamine oxidase activity was estimated by measuring the conversion of kynuramine into 4-hydroxyquinoline. […]
# After leaving the enzyme(s) interacting with the inhibitor, KM of kynuramine was added to each reaction for MAO-B and MAO-A assay respectively, and the reaction was left for 1 hour at 37° C. in the dark. […] The conversion of kynuramine to 4-hydroxyquinoline, was monitored by fluorescence (excitation at 320 nm, emission at 360 nm) using a microplate reader (Infinite 200, Tecan). Arbitrary units were used to measure levels of fluorescence produced in the absence and/or in the presence of inhibitor.
# The IC50 values of each inhibitor were calculated with GraphPad Prism Software.
# [2] = test system: demyelination and inflammatory cell infiltration in spinal cord; experiment: Histopathological analysis of spinal cord in EAE mice (Kluver-Barrera); type: in vivo, C57BL/6 mice; settings: 0.5 mg/kg p.o., day 26 postimmunization
# Experimental: (§1) Mice were scored daily for signs of EAE, using the scores described in Example 3.1. Animals were sacrificed on day 26 postimmunization and samples were collected and processed as described below. n=10 mice/group.
# (§2) Tissue collection and cell isolation. On day 26 postimmunization, spleen, draining lymph nodes (DLNs: cervicals, inguinals and axillaries), and spinal cord were removed. Spinal segments of the cervical and lumbar regions were prepared separately and processed for protein extraction, and histopathological analysis. Single-cell suspensions were obtained from spleen or pooled lymph nodes, the samples were homogenized and total number of cells was quantified using Neubauer chamber.
# Processing of samples for histopathological analysis. Cervical and lumbar spinal cord segments were divided and processed for inclusion and sectioning in paraffin. Spinal cord segments were immediately fixed with buffered 10% formalin for 48h, dehydrated and included in paraffin using standard techniques. Transversal sections (4-μm thickness) were stained with Luxol fast blue, cresyl violet, and hematoxylin following the Klüver-Barrera technique and were analyzed for the presence of areas of demyelination and cell infiltration using a light microscope (Leica, DM2000).
# [3] = target: T2, Human recombinant LSD1 (Homo sapiens, UniProt O60341); experiment: LSD1 in vitro biochemical assay (Amplex Red, di-methylated H3-K4 peptide); settings: read-out: IC50 against LSD1
# T2 construct: amino acids 158-end with N-terminal GST tag; GST (N); purchased BPS Bioscience Inc 50100
# Source text: In order to monitor LSD1 enzymatic activity and/or its inhibition rate by a test compound, di-methylated H3-K4 peptide (Anaspec) was chosen as a substrate. The demethylase activity was estimated, under aerobic conditions, by measuring the release of H2O2 produced during the catalytic process, using the Amplex® Red hydrogen peroxide/peroxidase assay kit (Invitrogen).
# Tranylcypromine (Biomol International) was used as a control for inhibition. Within the experiment, each concentration of inhibitor was tested in duplicate. After leaving the enzyme interacting with the inhibitor, KM of di-methylated H3-K4 peptide was added to each reaction and the experiment was left for 30 minutes at 37° C. in the dark. The enzymatic reactions were set up in a 50 mM sodium phosphate, pH 7.4 buffer. […] The conversion of the Amplex® Red reagent to resorufin due to the presence of H2O2 in the assay, was monitored by fluorescence (excitation at 540 nm, emission at 590 nm) using a microplate reader (Infinite 200, Tecan). […] The maximum demethylase activity of LSD1 was obtained in the absence of inhibitor and corrected for background fluorescence in the absence of LSD1. The IC50 value of each inhibitor was calculated with GraphPad Prism Software.
# [4] = test system: IL-4, IL-6, IL-1beta, IP-10, MCP-1 in spinal cord; experiment: Cytokine/chemokine levels in spinal cord of EAE mice by ELISA; type: in vivo, C57BL/6 mice; settings: 0.5 mg/kg p.o., day 26, vs vehicle
# Experimental: as §1
# Protein extraction and cytokine/chemokine analysis. Proteins were extracted from cervical and lumbar segments of spinal cord by homogenization (50 mg tissue/[…]) in lysis buffer (50 mM Tris-HCl, pH 7.4, 0.5 mM DTT, and 10 μg/ml proteinase inhibitors PMSF, pepstatin, and leupeptin). Samples were centrifuged (20.000×g, 15 min, 4° C.) and the supernatants were assayed for protein concentration (using Bradford method) and for cytokine/chemokine contents by using specific sandwich ELISAs for IL-4, IL-6, IL-1beta, IP-10 and MCP-1, according to manufacturer's recommendations, using the following antibodies and recombinant proteins:
# (§3) Statistical Analysis: Cell number analysis in lymph nodes and spleen: statistical differences are indicated as ***p<0.001 vs vehicle using ANOVA test. Cytokine/chemokine level analysis: statistical differences are indicated as: *p<0.05, **p<0.005, using Mann-Whitney test; unpaired t-test was used for IP-10 level analysis.
# [5] = test system: Experimental Autoimmune Encephalomyelitis (EAE); experiment: Experimental autoimmune encephalomyelitis (EAE) model, MOG35-55, daily clinical score; type: in vivo, C57BL/6 mice
# Experimental: To induce chronic EAE by active immunization, C57BL/6 mice were immunized s.c. with 100 μg of myelin oligodendrocyte glycoprotein MOG35-55 emulsified in complete Freund's adjuvant (CFA) containing 4 mg/ml Mycobacterium tuberculosis H37 RA. Mice also received i.p. injections of 200 ng of pertussis toxin on days 0 and 2.
# Mice were scored daily for signs of EAE according to the following clinical scoring system: 0, no clinical signs; 0.5, partial loss of tail tonicity; 1, complete loss of tail tonicity; 2, flaccid tail and abnormal gait; 3, hind leg paralysis; 4, hind leg paralysis with hind body paresis; 5, hind and fore leg paralysis; and 6, death.
# Control mice were orally treated with vehicle [2% v/v Tween-80+98% HPβCD (13% w/v)] following the same regime of administration. Mice were scored daily for signs of EAE according to clinical scoring system described in Example 3.1. n=10 mice/group. […]. […] Mice were scored daily for signs of EAE, using the scores described in Example 3.1. Animals were sacrificed on day 26 postimmunization and samples were collected and processed as described below. n=10 mice/group.
# [6] = Tolerability at therapeutic doses; type: in vivo
# [7] = test system: immune cells in spleen and lymph nodes; experiment: Number of immune cells in spleen and lymph nodes of EAE mice; type: in vivo, C57BL/6 mice; settings: 0.5 mg/kg p.o., day 26 postimmunization, vs vehicle
# Experimental: as §1, §2, §3
compound,measurement,setting,value
"Nc1nnc(CN[C@@H]2C[C@H]2c2ccc(OCc3ccccc3)cc2)o1 (single isomer, unassigned) [Compound 1, (−) 5-((((trans)-2-(4-(benzyloxy)phenyl)cyclopropyl)amino)methyl)-1,3,4-oxadiazol-2-amine]",IC50,[1],5.3 µM
same,Inflammatory cell infiltration and demyelination areas in cervical and lumbar spinal cord,[2],no inflammatory cell infiltration nor demyelination areas were observed
same,Mean number of demyelination plaques in cervical and lumbar spinal cord,[2],absent or greatly reduced demyelination
same,IC50,[3],0.09 µM
same,IL-1 beta level in spinal cord,[4],reduced
same,IL-4 level in spinal cord,[4],significantly increased
same,IL-6 level in spinal cord,[4],reduced
same,IP-10 level in spinal cord,[4],significantly reduced
same,MCP-1 level in spinal cord,[4],significantly reduced
same,"Development of EAE, disease incidence and severity by daily clinical score","[5]; 0.5 mg/kg p.o., Example 4",greatly inhibited the development of EAE
same,"Development of EAE, disease incidence and severity by daily clinical score","[5]; 1 or 3 mg/kg p.o., days 12-16 and 19-23 postimmunization",greatly inhibited the development of EAE
same,Mice displaying mild symptoms,"[5]; 1 or 3 mg/kg p.o., therapeutic regime",40-70%
same,Mice almost completely recovered,"[5]; 1 or 3 mg/kg p.o., 40 days after disease onset",30%
same,Dose at which clinical score in EAE is reduced (as low as),"[5]; p.o., tested at 1, 0.5 and 0.05 mg/kg",≤ 0.05 mg/kg
same,Tolerability on long-term treatment,"[6]; 0.5 mg/kg p.o., mice",well-tolerated
same,"Effects on hematology or circulating lymphocyte counts, gastro-intestinal toxicity","[6]; at therapeutically effective doses, no method or species printed",do not produce clinically relevant effects on hematology or circulating lymphocyte counts
same,Number of immune cells retained in spleen and lymph nodes,[7],significant increase
"Fc1ccccc1[C@@H]1C[C@H]1NC1CCNCC1 [ORY-LSD1, N-((1R,2S)-2-(2-fluorophenyl)cyclopropyl)piperidin-4-amine, reference compound]",Effect on EAE clinical score,"[5]; 0.06 and 0.180 mg/kg p.o., same scheme as Example 3.1",clear tendency for improvement
